Source: patent US9433645B2, “Method and composition for preventing stem cell disruption and aggregation” (R BIO CO., LTD., priority 2012, dated 2016)

Key:
Format in all cases: cell-based, human
[1] = tested on: adipose tissue-derived mesenchymal stem cells; assay: Survival rate of stem cells suspended in normal saline containing acetylsalicylic acid; details: for Survival rate: 1.0×10^7 cells
Protocol: After the adipose tissue-derived mesenchymal stem cells isolated in Example 1 were treated with trypsin, the trypsin treated adipose tissue-derived mesenchymal stem cells (1.0×10^7 cells) were suspended in normal saline containing acetylsalicylic acid (Sigma; A5376) at each concentration, and survival rates at 12 and 24 hours were observed. The normal saline containing acetylsalicylic acid was prepared by adding acetylsalicylic acid to normal saline at each concentration and performing sonication at 37 °C for 30 minutes.

[2] = tested on: adipose tissue-derived mesenchymal stem cells; assay: Survival, number of cells and aggregation of stem cells suspended in normal saline containing aspirin lysine
Protocol: (§1) After the adipose tissue-derived mesenchymal stem cells isolated in Example 1 were treated with trypsin, the trypsin treated adipose tissue-derived mesenchymal stem cells (1.0×10^6 cells) were suspended in normal saline containing aspirin lysine (Shinpoong) at each concentration and cultured for 5 days, and the number of cells was measured. Then, after cold-temperature storage for 24 hours, FACS was measured, thereby confirming characteristics of the cells.

[3] = tested on: adipose tissue-derived mesenchymal stem cells; assay: FACS characteristics (marker expression rate) of stem cells after suspension in normal saline containing aspirin lysine
Protocol: as §1

[4] = FACS, aspirin 0.1 mg/10 ml, after cold-temperature storage for 24 hours

Question: What does the source list for `CC(=O)Oc1ccccc1C(=O)O` [acetylsalicylic acid]?
Answer: Survival rate ([1]; 12 hours, aspirin 1 mg/10 ml normal saline): 50%; Survival rate ([1]; 12 hours, aspirin 2 mg/10 ml normal saline): 20%; Survival rate ([1]; 12 hours, aspirin 5 mg/10 ml normal saline): 10%; Survival rate ([1]; 24 hours, aspirin 1 mg/10 ml normal saline): 10%; Survival rate ([1]; 24 hours, aspirin 2 mg/10 ml normal saline): 10%; Survival rate ([1]; 24 hours, aspirin 5 mg/10 ml normal saline): 5%; Cytotoxic effect ([1]; aspirin added to 10 ml of normal saline 1.0 mg or more): a cytotoxic effect was exhibited

Question: How did the “Change in the number of cells” value ([2]; after culturing for 5 days) turn out when `CC(=O)Oc1ccccc1C(=O)O` [aspirin lysine] was run?
Answer: Its value is “almost no change in the number of cells”.

Question: What about the “Cell survival rate depending on the concentration” value ([2]; normal saline containing aspirin lysine at each concentration) of the same compound?
Answer: The value was “slightly decreased, but the decrease was not significant”.

Question: And the Aggregation on storage ([2]; storing the stem cells in normal saline containing aspirin)?
Answer: The Aggregation on storage was “aggregation may be prevented without causing changes in the characteristics of cells”.

Question: What about the “Expression rate CD29” value [3, 4] of the same compound?
Answer: Its value is 99.97%.

Question: And the “Expression rate CD31” value [3, 4]?
Answer: The value was 0.21%.

Question: What about the “Expression rate CD44” value [3, 4] of the same compound?
Answer: Its value is 99.25%.

Question: And the “Expression rate CD45” value [3, 4]?
Answer: The value was 0.17%.

Question: What about the “Characteristics of the stem cells (FACS)” value ([3]; stored at a cold temperature for 24 hours after suspension in normal saline containing aspirin for 24 hours) of the same compound?
Answer: Its value is “no influence of the concentration of aspirin”.
